The text below walks through data of patent US8772284B2, “Method of treating cancer using combination of a bifunctional alkylating agent and DNA repair inhibitors” (Academia Sinica, priority 2009, dated 2014).

One experiment deals with DNA ICLs in H460 cells. The experiment can be described thus: Modified comet assay, formation and repair of DNA ICLs. It is filed as cell-based, human. To be noted: treated 1 h. Here is the method:
(§1) H460 cells were treated with various concentrations of BO-1012, melphalan, or thiotepa for 1 h and then subjected to the modified comet assay as described in Materials and Methods. Percentage of DNA ICLs was calculated by the percentage of decrease in tail moment. […] H460 cells were treated with 40 μM BO-1012 for 1 h, washed, and then treated with 8 μM ATO for 16, 24, and 48 h. *, p<0.05 as compared to BO-1012 alone at the indicated time. […] H460 cells were treated with BO-1012 and ATO, alone or in combination, as described above. After treatment, the detection of γH2AX (green) immunofluorescence staining was performed as described in Materials and Methods. Nuclei were stained by DAPI (blue).
Modified Single-Cell Gel Electrophoresis (Comet) and DNA ICL Repair Assays. The formation and the repair of DNA ICLs in H460 cells was analyzed using a modified comet assay as described previously.

The test system of the next experiment is CL-1-5 xenografts. As to conditions: CL-1-5 xenograft; LY294002 40 mg/Kg QD×9, triciribine 1 mg/Kg Q2D×5, BO-1509 10 mg/Kg.
Experiment [1] concerns NTUB1/P cells (cisplatin-resistant). The experiment can be described thus: Cell viability, WST-1 assay. To be noted: for IC50: NTUB1/P cells, agent alone. It is filed as cell-based, human. The source says:
(§2) Cell Lines and Cell Culture. H460 (human lung large cell carcinoma cells), H1299 (human lung large cell carcinoma p53-deficient cells), PC3 (human prostate carcinoma cells), U87 (human glioma cells), and MCF7 (human breast carcinoma cells) were purchased from the American Type Culture Collection (Rockville, Md.). OEC-M1 (human gingival squamous cell carcinoma cells) was obtained from Dr. C.-L. Meng (National Defense Medical College, Taiwan). NTUB1 (human bladder transitional carcinoma cells) and the cisplatin-resistant sub-line NTUB1/P were provided by Dr. Y.-S. Pu (National Taiwan University Hospital, Taiwan). CL-1-5 (human lung adenocarcinoma cells) was obtained from Dr. P. C. Yang (National Taiwan University). All cell lines (except U87, which was grown in MEM medium) were cultured in RPMI1640 medium supplemented with 10% FBS and antibiotics, and incubated at 37° C. in a humidified atmosphere with 5% CO2.
(§3) Measurement of Cell Viability. Cell viability was assessed using the cell proliferation reagent WST-1 (Roche Molecular Biochemicals, Penzberg, Germany), which is a tetrazolium salt that is cleaved by mitochondrial dehydrogenase in viable cells. In brief, 2,000-7,000 cells were seeded in each well of 96-well plates and incubated at 37° C. overnight prior to drug treatment. After a 72-h incubation with BO-1012 alone (0.1˜80 μM), ATO alone (1˜8 μM), or BO-1012 plus ATO, WST-1 solution was added to each well at a 1:10 dilution, and cells were incubated at 37° C. in 5% CO2 for 4 h. Cell viability was assessed by absorbance at 460 nm using an automatic enzyme-linked immunosorbent assay (ELISA) plate reader. The IC50 value for each drug, alone or in combination, was calculated using CompuSyn software (version 1.0.1; CompuSyn, Inc.). The interactions between ATO and BO-1012 were evaluated by the Chou-Talalay combination indices (CI), where CI<1 indicates synergy; CI=1, additivity; and CI>1, antagonism.
For orientation: Formazan colour is commonly taken as a measure of viable cells.

The subject of the next experiment is NTUB1 cells. In words: Cell viability, WST-1 assay. It is filed as cell-based, human. To be noted: agent alone.
From the text: as §2, §3

The test system of the next experiment is H460 xenografts. In words: H460 xenograft mouse model. Type of experiment: in vivo, nude mice. As to conditions: 2.5 mg/kg BO-1012 and/or 5 mg/kg ATO, i.v., QD×5.
The next experiment has as its system NTUB1 xenografts. The experiment can be described thus: NTUB1 xenograft mouse model. Type of experiment: in vivo, nude mice. To be noted: 2.5 mg/kg BO-1012 or 5 mg/kg ATO, i.v., QD×5.
Experiment [2] concerns γH2AX nuclear foci in H460 cells. In words: γH2AX nuclear foci, immunofluorescence staining. It is filed as cell-based, human. To be noted: time not stated. Here is the method: as §1
Immunofluorescence Staining. H460 cells were cultured onto slides and then treated with BO-1012 and ATO, separately and in combination as described above, for 24, 48, or 72 h. To visualize γH2AX, cells were washed with cold PBS and fixed with 100% ice-cold methanol for 30 min. Slides were washed with PBS and incubated with anti-γH2AX antibody for 2 h at room temperature followed by Alexa Fluor 488-conjugated secondary antibodies (Molecular Probes, Eugene, Oreg.) and DAPI. After mounting with 50% glycerol, slides were subjected to confocal image analysis (Radiance 2100 System, Bio-Rad). Cells with at least four γH2AX foci in nuclei were counted as positive.

The next experiment deals with NTUB1/P xenografts. The experiment can be described thus: NTUB1/P xenograft mouse model. Type of experiment: in vivo, nude mice. To be noted: 5 mg/kg ATO, i.v., QD×5.
In experiment [3] the test system is NTUB1/P cells (cisplatin-resistant). As to conditions: NTUB1/P vs NTUB1, stated with ref [37]; cited from earlier work.

In the case of `S=P(N1CC1)(N1CC1)N1CC1` [thiotepa], in the experiment on DNA ICLs in H460 cells, the “formation of ICLs” value is reported as “increased in a dose-dependent fashion”.

On to `O=c1cc(N2CCOCC2)oc2c(-c3ccccc3)cccc12` [LY294002, 2-(4-morpholinyl)-8-phenyl-chromone], for which the “suppression of tumor growth” value with CL-1-5 xenografts was “unable to suppress the tumor growth at all”.

As usually defined, the IC50 is the midpoint of a concentration-inhibition curve. For the molecule arsenic trioxide [ATO], the IC50 in [1] amounted to 3.8 µM; with NTUB1 cells it was 400 nM. Also, in experiment [1] (ratio of IC50 values), the “fold more resistant, NTUB1/P than NTUB1 cells” value came out at 9.5 fold. Further, the “formation of ICLs” value in the experiment on DNA ICLs in H460 cells is “did not cause ICLs”. Also, in the experiment with H460 xenografts, the “time to achieve a tumor volume of 500 mm^3” value was found to be 7.1 days. For the same molecule, the “growth of NTUB1 tumors” value with NTUB1 xenografts is on record as “did not effectively suppress”. Also, the “percentage of cells with γH2AX foci” value in experiment [2] is on record as 26.8%. For the same molecule, the “growth of NTUB1/P tumors” value in the experiment on NTUB1/P xenografts is “did not effectively suppress”.

`N.N.[Cl][Pt][Cl]` [cisplatin]: the IC50 in [1] came to 212 µM; in the experiment on NTUB1 cells, 3600 nM. In addition, the “fold more resistant to cisplatin than the parental cells” value in experiment [3] is on record as 60 fold.

As to `N[C@@H](Cc1ccc(N(CCCl)CCCl)cc1)C(=O)O` [melphalan], the “formation of ICLs” value with DNA ICLs in H460 cells is “increased in a dose-dependent fashion”.
